Results taken from ChEMBL document CHEMBL6120946, “From Hit to Lead: Discovery of First-In-Class Furanone Glycoside D228 Derived from Chimonanthus salicifolius for the Treatment of Inflammatory Bowel Disease” (J Med Chem, 2024).
pIC50: −log10 of the molar value. Activity calls are given as the source filed them. The rule behind the calls is not given here.

What was measured:
Mus musculus [1] = assay: Antiinflammatory activity in DSS-induced male C57BL/6 mouse model of inflammatory bowel disease assessed as recovery in colon length at 40 mg/kg/day, po measured after 7 days relative to control; assay type: functional; conditions: time 7 day
Mus musculus [2] = assay: Antiinflammatory activity in DSS-induced male C57BL/6 mouse model of inflammatory bowel disease assessed as recovery from body weight loss at 40 mg/kg/day, po measured after 7 days; assay type: functional, organism-based; conditions: time 7.0 day
[3] = Cytotoxicity against mouse Splenocyte by MTT assay; assay type: toxicity, cell-based; conditions: splenocytes
Mus musculus [4] = assay: Antiinflammatory activity in DSS-induced male C57BL/6 mouse model of inflammatory bowel disease assessed as recovery from body weight loss at 40 mg/kg/day, po measured after 7 days relative to control; assay type: functional; conditions: time 7 day
[5] = Selectivity ratio of CC50 for cytotoxicity against mouse Splenocyte to IC50 for immunosuppressive activity in mouse T-lymphocyte; assay type: toxicity; conditions: splenocytes (CC50) and T-lymphocytes (IC50)
B-cell line = assay: Immunosuppressive activity in mouse B-lymphocyte assessed as reduction in LPS-induced cell proliferation incubated for 48 hrs; assay type: functional, cell-based
[6] = Immunosuppressive activity in mouse T-lymphocyte assessed as reduction in concanavalin A-induced cell proliferation incubated for 48 hrs; assay type: functional, cell-based
[7] = Selectivity ratio of CC50 for cytotoxicity against mouse Splenocyte to IC50 for immunosuppressive activity in mouse B-lymphocyte; assay type: toxicity; conditions: splenocytes (CC50) and B-lymphocytes (IC50)
Mus musculus [8] = assay: Antiinflammatory activity in DSS-induced male C57BL/6 mouse model of inflammatory bowel disease assessed as restoration of colon length at 40 mg/kg/day, po via gavage measured after 14 days relative to control; assay type: functional; conditions: time 14 day
Mus musculus [9] = assay: Antiinflammatory activity in male C57BL/6 mouse model of inflammatory bowel disease assessed as recovery of DSS-induced body weight loss at 40 mg/kg/day, po via gavage measured after 14 days relative to control; assay type: functional; conditions: time 14 day
Mus musculus [10] = assay: Antiinflammatory activity in DSS-induced male C57BL/6 mouse model of inflammatory bowel disease assessed as increase in colon length at 250 mg/kg/day, po via gavage measured upto 14 days relative to control; assay type: functional; conditions: time <= 14 day

Row | SMILES | Activity (Mus musculus [1]) [%] | Activity (Mus musculus [2]) | CC50 [3] [µM] | Activity (Mus musculus [4]) [%] | selectivity ratio [5] | pIC50 (B-cell line) | pIC50 [6] | selectivity ratio [7] | Activity (Mus musculus [8]) [%] | Activity (Mus musculus [9]) [%] | Activity (Mus musculus [10]) [%]
1 | CC(=O)OC[C@H]1O[C@@H](OC2=C(C)OC(=C3CCNCC3)C2=O)[C@H](OC(C)=O)[C@@H](OC(C)=O)[C@@H]1OC(C)=O | 52.9 | Active | 15.5 | 28 | 0.8 | 4.39 | 4.54 | 0.37 | – | – | –
2 | CC(=O)OC[C@H]1O[C@@H](OC2=C(C)OC(=C3CCCCC3)C2=O)[C@H](OC(C)=O)[C@@H](OC(C)=O)[C@@H]1OC(C)=O | 54.8 | Active | 35.6 | 30.7 | 0.92 | 4.27 | 2.33 | 0.79 | – | – | –
3 | CC(C)=C1OC(C)=C(O[C@@H]2O[C@H](COC(=O)C(C)(C)C)[C@@H](OC(=O)C(C)(C)C)[C@H](OC(=O)C(C)(C)C)[C@H]2OC(=O)C(C)(C)C)C1=O | – | – | > 200 | – | – | < 4.00 | < 4.00 | – | 3.2 | 41.6 | –
4 | CC1=C(O)C(=O)C(=C2CCOCC2)O1 | – | – | 232 | – | – | < 4.00 | < 4.00 | – | – | – | –
5 | C/C=C/C[C@@H](C)[C@@H](O)[C@H]1C(=O)N[C@@H](CC)C(=O)N(C)CC(=O)N(C)[C@@H](CC(C)C)C(=O)N[C@@H](C(C)C)C(=O)N(C)[C@@H](CC(C)C)C(=O)N[C@@H](C)C(=O)N[C@H](C)C(=O)N(C)[C@@H](CC(C)C)C(=O)N(C)[C@@H](CC(C)C)C(=O)N(C)[C@@H](C(C)C)C(=O)N1C [CYCLOSPORINE] | – | – | – | – | – | 6.34 | – | – | – | – | –
6 | CC(=O)OC[C@H]1O[C@@H](OC2=C(C)OC(=C3CCCC3)C2=O)[C@H](OC(C)=O)[C@@H](OC(C)=O)[C@@H]1OC(C)=O | 45.2 | Active | 40 | 62.5 | 1.83 | 4.79 | 4.63 | 2.73 | – | – | –
7 | O=C(O)c1cc(/N=N/c2ccc(S(=O)(=O)Nc3ccccn3)cc2)ccc1O [SULFASALAZINE] | – | – | – | – | – | – | – | – | 9.5 | 24 | 86.7
8 | CC(=O)OC[C@H]1O[C@@H](OC2=C(C)OC(=C3CCN(C(C)=O)CC3)C2=O)[C@H](OC(C)=O)[C@@H](OC(C)=O)[C@@H]1OC(C)=O | 26.7 | Active | 38.7 | 13.9 | 1.23 | 4.60 | 4.32 | 1.74 | – | – | –
